Tests used:
Assay type in all cases: cell-based
human TLR7 = target: T1, human TLR7 (Homo sapiens, UniProt Q9NYK1); test: TLR7 inhibition reporter assay (HEK-Blue SEAP reporter, gardiquimod stimulation); settings: HEK-Blue cells overexpressing human TLR7, SEAP reporter, gardiquimod 7.5 μM, 22 hour incubation
T1 construct: host or cells: HEK-Blue cells
T1 sequence (Q9NYK1 27-1049): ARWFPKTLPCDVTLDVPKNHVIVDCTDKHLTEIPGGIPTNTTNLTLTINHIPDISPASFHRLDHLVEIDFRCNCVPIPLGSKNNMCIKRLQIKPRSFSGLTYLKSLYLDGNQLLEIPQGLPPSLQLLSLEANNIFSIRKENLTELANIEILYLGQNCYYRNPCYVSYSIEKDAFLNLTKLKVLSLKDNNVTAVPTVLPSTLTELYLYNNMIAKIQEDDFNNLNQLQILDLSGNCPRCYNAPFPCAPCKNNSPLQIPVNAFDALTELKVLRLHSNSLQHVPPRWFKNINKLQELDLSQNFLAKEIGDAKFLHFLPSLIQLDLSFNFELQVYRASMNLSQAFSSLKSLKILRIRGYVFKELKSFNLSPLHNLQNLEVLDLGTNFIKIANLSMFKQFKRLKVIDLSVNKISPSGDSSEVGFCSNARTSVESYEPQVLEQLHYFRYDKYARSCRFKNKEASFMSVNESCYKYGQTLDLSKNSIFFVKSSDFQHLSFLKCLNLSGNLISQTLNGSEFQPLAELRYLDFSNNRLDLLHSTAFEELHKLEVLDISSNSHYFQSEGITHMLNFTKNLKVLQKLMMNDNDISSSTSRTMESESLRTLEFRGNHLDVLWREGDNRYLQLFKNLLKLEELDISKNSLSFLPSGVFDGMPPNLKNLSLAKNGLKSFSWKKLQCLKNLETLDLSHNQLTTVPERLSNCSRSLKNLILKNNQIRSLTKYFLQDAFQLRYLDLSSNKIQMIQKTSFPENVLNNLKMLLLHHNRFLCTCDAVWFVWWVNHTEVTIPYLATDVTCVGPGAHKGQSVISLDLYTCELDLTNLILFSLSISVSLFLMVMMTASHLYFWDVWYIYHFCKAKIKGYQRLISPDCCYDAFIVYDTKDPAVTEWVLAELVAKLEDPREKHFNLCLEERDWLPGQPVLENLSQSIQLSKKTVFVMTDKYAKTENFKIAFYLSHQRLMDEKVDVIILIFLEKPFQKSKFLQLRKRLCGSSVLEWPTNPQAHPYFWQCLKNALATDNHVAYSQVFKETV
Summary of the method: (§1)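 Screening used HEK-Blue cells overexpressing one human TLR (7, 8 or 9) and an IFN-β minimal promoter–NF-κB/AP-1 SEAP construct. Stimulation lasted 22 h at 37 °C with receptor-specific agonist: gardiquimod, R848 or ODN2006 at 7.5 μM, 15.9 μM and 5 nM.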

human TLR8 = target: T2, human TLR8 (Homo sapiens, UniProt Q9NR97); test: TLR8 inhibition reporter assay (HEK-Blue SEAP reporter, R848 stimulation); settings: HEK-Blue cells overexpressing human TLR8, SEAP reporter, R848 15.9 μM, 22 hour incubation
T2 construct: host or cells: HEK-Blue cells
T2 sequence (Q9NR97 27-1041): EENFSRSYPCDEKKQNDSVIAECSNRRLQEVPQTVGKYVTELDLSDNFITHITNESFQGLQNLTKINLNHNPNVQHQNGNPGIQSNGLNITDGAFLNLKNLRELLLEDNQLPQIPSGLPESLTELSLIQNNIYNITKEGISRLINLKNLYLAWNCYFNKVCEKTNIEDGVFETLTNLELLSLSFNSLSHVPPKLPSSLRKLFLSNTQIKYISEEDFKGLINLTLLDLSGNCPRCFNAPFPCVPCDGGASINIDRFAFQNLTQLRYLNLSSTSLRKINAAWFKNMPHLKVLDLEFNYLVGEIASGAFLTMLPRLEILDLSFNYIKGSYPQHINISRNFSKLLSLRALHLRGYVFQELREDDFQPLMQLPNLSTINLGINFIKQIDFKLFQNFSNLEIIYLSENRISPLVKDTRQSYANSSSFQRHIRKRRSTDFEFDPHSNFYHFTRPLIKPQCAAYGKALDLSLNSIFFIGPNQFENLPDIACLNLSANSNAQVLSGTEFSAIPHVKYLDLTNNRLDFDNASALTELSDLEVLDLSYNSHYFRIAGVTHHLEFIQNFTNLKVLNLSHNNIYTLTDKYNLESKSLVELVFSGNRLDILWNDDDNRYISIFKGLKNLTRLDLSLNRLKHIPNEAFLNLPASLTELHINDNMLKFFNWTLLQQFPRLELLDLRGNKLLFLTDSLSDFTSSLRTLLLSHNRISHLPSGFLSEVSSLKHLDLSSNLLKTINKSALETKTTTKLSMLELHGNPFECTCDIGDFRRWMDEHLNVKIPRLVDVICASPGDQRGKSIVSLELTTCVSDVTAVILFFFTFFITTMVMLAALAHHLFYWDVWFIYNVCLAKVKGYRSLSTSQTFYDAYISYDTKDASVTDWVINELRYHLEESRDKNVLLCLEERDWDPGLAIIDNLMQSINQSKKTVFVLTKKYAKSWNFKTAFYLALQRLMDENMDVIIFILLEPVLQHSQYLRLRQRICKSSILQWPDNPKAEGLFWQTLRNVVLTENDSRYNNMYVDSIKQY
Summary of the method: as §1

human TLR9 = target: T3, human TLR9 (Homo sapiens, UniProt Q9NR96); test: TLR9 inhibition reporter assay (HEK-Blue SEAP reporter, ODN2006 stimulation); settings: HEK-Blue cells overexpressing human TLR9, SEAP reporter, ODN2006 5 nM, 22 hour incubation
T3 construct: host or cells: HEK-Blue cells
T3 sequence (Q9NR96 26-1032): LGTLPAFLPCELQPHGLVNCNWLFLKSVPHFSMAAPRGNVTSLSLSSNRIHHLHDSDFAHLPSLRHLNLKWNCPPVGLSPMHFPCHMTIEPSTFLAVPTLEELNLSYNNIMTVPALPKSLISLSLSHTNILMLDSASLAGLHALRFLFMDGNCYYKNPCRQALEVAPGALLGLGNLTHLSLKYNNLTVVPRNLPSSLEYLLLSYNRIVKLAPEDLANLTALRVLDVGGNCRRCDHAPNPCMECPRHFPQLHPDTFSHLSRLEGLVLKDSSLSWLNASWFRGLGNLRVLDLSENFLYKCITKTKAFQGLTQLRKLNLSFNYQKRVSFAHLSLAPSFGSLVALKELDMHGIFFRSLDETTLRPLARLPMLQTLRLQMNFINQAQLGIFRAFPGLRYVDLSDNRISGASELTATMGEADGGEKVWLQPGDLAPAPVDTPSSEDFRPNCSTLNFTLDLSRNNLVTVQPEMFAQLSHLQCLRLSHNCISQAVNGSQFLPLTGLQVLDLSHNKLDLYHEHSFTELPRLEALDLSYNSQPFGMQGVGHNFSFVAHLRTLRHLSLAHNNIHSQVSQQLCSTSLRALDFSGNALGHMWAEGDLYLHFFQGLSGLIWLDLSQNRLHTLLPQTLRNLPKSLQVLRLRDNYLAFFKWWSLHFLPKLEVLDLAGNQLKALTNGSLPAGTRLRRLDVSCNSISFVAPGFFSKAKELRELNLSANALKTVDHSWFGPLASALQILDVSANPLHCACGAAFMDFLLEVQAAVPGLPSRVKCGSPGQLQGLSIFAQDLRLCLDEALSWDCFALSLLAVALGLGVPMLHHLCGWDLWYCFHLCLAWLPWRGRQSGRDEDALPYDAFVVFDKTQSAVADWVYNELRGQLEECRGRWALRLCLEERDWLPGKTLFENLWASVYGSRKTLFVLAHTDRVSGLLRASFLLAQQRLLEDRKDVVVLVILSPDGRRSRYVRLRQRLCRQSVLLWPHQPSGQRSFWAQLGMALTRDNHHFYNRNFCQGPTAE
Summary of the method: as §1

Structure (SMILES) | IC50 (human TLR7) [nM] | IC50 (human TLR8) [nM] | IC50 (human TLR9) [nM]
CCn1cc(-c2[nH]c3ccc(C4CCN(C5CCOCC5)CC4)cc3c2C(C)C)c(C)c(C)c1=O [Example 208, 1-ethyl-5-(3-isopropyl-5-(1-(tetrahydro-2H-pyran-4-yl)piperidin-4-yl)-1H-indol-2-yl)-3,4-dimethylpyridin-2(1H)-one] | 31.1 | 7 | 3110
COc1c(C)c(-c2[nH]c3ccc(C4CCN(C5COC5)CC4)cc3c2C(C)C)cn(C)c1=O [Example 215, 5-(3-isopropyl-5-(1-(oxetan-3-yl)piperidin-4-yl)-1H-indol-2-yl)-3-methoxy-1,4-dimethylpyridin-2(1H)-one] | 66.1 | 54.9 | 17200
Cc1c(-c2[nH]c3ccc(C4CCN(C(=O)CN(C)C)CC4)cc3c2C(C)C)nn(C)c(=O)c1C [Example 283, 6-(5-(1-(dimethylglycyl)piperidin-4-yl)-3-isopropyl-1H-indol-2-yl)-2,4,5-trimethylpyridazin-3(2H)-one] | 512 | 46.8 | 6250
Cc1c(-c2[nH]c3ccc(C4CCN(CC5CCOC5)CC4)cc3c2C(C)C)cn(C)c(=O)c1Cl (stereo not drawn) [Example 254, 3-chloro-5-(3-isopropyl-5-(1-((tetrahydrofuran-3-yl)methyl)piperidin-4-yl)-1H-indol-2-yl)-1,4-dimethylpyridin-2(1H)-one] | 5.5 | 2.1 | 2670
CCn1cc(-c2[nH]c3ccc(C4CCN(CC(=O)NC)CC4)cc3c2C(C)C)cc(C)c1=O [Example 132, 2-(4-(2-(1-ethyl-5-methyl-6-oxo-1,6-dihydropyridin-3-yl)-3-isopropyl-1H-indol-5-yl)piperidin-1-yl)-N-methylacetamide] | 9 | 15.1 | 25500
Cc1cc(-c2[nH]c3ccc(C4CCNCC4)cc3c2C(C)C)cn(CC2CC2)c1=O [Example 34, 1-(cyclopropylmethyl)-5-(3-isopropyl-5-(piperidin-4-yl)-1H-indol-2-yl)-3-methylpyridin-2(1H)-one] | 7.1 | 48 | 1460
Cc1cc(=O)n(C)cc1-c1[nH]c2ccc(C3CCNCC3)cc2c1C(C)C [Example 8, 5-(3-isopropyl-5-(piperidin-4-yl)-1H-indol-2-yl)-1,4-dimethylpyridin-2(1H)-one] | 72.7 | 43.5 | 957
Cc1c(-c2[nH]c3ccc(C4CCNCC4)cc3c2C(C)C)cn(C)c(=O)c1Cl [Example 31, 3-chloro-5-(3-isopropyl-5-(piperidin-4-yl)-1H-indol-2-yl)-1,4-dimethylpyridin-2(1H)-one] | 1 | 7 | 1120
COCc1cc(-c2[nH]c3ccc(C4CCN(C(C)C)CC4)cc3c2C(C)C)cn(C)c1=O [Example 347, 5-(3-isopropyl-5-(1-isopropylpiperidin-4-yl)-1H-indol-2-yl)-3-(methoxymethyl)-1-methylpyridin-2(1H)-one] | 7.2 | 28.6 | 13600
CNC(=O)CN1CCC(c2ccc3[nH]c(-c4cc(C)c(=O)n(C)c4C)c(C(C)C)c3c2)CC1 [Example 139, 2-(4-(3-isopropyl-2-(1,2,5-trimethyl-6-oxo-1,6-dihydropyridin-3-yl)-1H-indol-5-yl)piperidin-1-yl)-N-methylacetamide] | 15.4 | 4.2 | 10400
Cc1cc(-c2[nH]c3ccc(C4CCN(C(=O)CN(C)C)CC4)cc3c2C(C)C)nn(C)c1=O [Example 294, 6-(5-(1-(dimethylglycyl)piperidin-4-yl)-3-isopropyl-1H-indol-2-yl)-2,4-dimethylpyridazin-3(2H)-one] | 12.5 | 16.9 | 3320
Cc1cc(-c2[nH]c3ccc(C4CCN(Cc5ccnn5C)CC4)cc3c2C(C)C)cn(C)c1=O [Example 197, 5-(3-isopropyl-5-(1-((1-methyl-1H-pyrazol-5-yl)methyl)piperidin-4-yl)-1H-indol-2-yl)-1,3-dimethylpyridin-2(1H)-one] | 4.6 | 2.4 | 8340
Cc1c(-c2[nH]c3ccc(C4CCN(C5CCOCC5)CC4)cc3c2C(C)C)cc(C#N)c(=O)n1C [Example 220, 5-(3-isopropyl-5-(1-(tetrahydro-2H-pyran-4-yl)piperidin-4-yl)-1H-indol-2-yl)-1,6-dimethyl-2-oxo-1,2-dihydropyridine-3-carbonitrile] | 24.5 | 1.4 | 2780
Cc1c(-c2[nH]c3ccc(C4CCN(CC(=O)N(C)C)CC4)cc3c2C(C)C)nn(C)c(=O)c1C [Example 130, 2-(4-(3-isopropyl-2-(1,4,5-trimethyl-6-oxo-1,6-dihydropyridazin-3-yl)-1H-indol-5-yl)piperidin-1-yl)-N,N-dimethylacetamide] | 290 | 25.9 | 8510

— patent publication US11447466B2, “Substituted indole compounds useful as inhibitors of TLR7/8/9” (BRISTOL-MYERS SQUIBB COMPANY, priority 2017, dated 2022)
